Results on two molecules are retold here after US4812481A, “Synergistic combination of amantadiene and selegiline” (Degussa Aktiengesellschaft, priority 1986, dated 1989).

In one test the test system is akinetic crisis. The test is described as follows: improvement of the akinetic crisis (critical deteriorations of the Morbus Parkinson). The format is in vivo, human. The conditions noted are these: intravenous amantadine, without or with addition of selegiline.
The subject of the next test is Parkinson's disease. The test is described as follows: anti-Parkinsonism action in human (Webster scale, disability score). Type of test: in vivo. From the text: The effect of the anti-Parkinsonism action is established, for example, by Webster, D. D., Med. Treat. (N.Y.) 5, pp. 257-282, 1968. Here, the different symptoms are assigned and weighted after application of the monosubstance amantadine or the combination:
1. Slowed motor response of the hands
2. Rigor (elevation of the muscle tone)
4. Simultaneous swinging of the upper extremities
10. Ability to stand alone.
An anti-Parkinsonism action is present if the sum of the values resulting from the Webster scale (the so-called disability score) is lower than the initial value without medication (<30). The synergistic effect of the combination results from the following: When selegiline is used in addition, the sum of the disability score is lower than that which would have been achieved if only amantadine had been used and/or the duration of the effectiveness of amantadine is extended.

For the molecule `NC12CC3CC(CC(C3)C1)C2` [amantadine, 1-amino-adamantane], the “onset of improvement of the akinetic crisis” value with akinetic crisis is given as “relatively slowly setting in improvement of the akinetic crisis”.

As to `C#CCN(C)[C@H](C)Cc1ccccc1` [selegiline, N-(1-phenyl-2-propyl)-N-methyl-2-propinylamine], the anti-Parkinsonism action result in the test on Parkinson's disease (Parkinson's disease, compared to pure amantadine) is “almost no anti-Parkinsonism action”. The “improvement of the symptoms of Parkinson (Webster sums)” value with Parkinson's disease (early stages of Morbus Parkinsonism) was “does not show sufficient effect in regard to improving the symptoms of the Parkinson symptomatics”.
